Legend:
[1] = Inhibition of anti-human alphaIgM-stimulated MIP1beta production in human Ramos B cells preincubated for 1 hr followed by anti-human IgM stimulation for 6 hrs by ELISA; assay type: functional, cell-based
[2] = target: T1, Epidermal growth factor receptor (Homo sapiens, UniProt P00533); experiment: Inhibition of EGFR (unknown origin) expressed in baculovirus system using fluorescein labeled PDGFR-tide substrate peptide preincubated for 60 mins followed by ATP addition and measured after 60 mins by IMAP assay
T1 sequence (P00533 whole entry): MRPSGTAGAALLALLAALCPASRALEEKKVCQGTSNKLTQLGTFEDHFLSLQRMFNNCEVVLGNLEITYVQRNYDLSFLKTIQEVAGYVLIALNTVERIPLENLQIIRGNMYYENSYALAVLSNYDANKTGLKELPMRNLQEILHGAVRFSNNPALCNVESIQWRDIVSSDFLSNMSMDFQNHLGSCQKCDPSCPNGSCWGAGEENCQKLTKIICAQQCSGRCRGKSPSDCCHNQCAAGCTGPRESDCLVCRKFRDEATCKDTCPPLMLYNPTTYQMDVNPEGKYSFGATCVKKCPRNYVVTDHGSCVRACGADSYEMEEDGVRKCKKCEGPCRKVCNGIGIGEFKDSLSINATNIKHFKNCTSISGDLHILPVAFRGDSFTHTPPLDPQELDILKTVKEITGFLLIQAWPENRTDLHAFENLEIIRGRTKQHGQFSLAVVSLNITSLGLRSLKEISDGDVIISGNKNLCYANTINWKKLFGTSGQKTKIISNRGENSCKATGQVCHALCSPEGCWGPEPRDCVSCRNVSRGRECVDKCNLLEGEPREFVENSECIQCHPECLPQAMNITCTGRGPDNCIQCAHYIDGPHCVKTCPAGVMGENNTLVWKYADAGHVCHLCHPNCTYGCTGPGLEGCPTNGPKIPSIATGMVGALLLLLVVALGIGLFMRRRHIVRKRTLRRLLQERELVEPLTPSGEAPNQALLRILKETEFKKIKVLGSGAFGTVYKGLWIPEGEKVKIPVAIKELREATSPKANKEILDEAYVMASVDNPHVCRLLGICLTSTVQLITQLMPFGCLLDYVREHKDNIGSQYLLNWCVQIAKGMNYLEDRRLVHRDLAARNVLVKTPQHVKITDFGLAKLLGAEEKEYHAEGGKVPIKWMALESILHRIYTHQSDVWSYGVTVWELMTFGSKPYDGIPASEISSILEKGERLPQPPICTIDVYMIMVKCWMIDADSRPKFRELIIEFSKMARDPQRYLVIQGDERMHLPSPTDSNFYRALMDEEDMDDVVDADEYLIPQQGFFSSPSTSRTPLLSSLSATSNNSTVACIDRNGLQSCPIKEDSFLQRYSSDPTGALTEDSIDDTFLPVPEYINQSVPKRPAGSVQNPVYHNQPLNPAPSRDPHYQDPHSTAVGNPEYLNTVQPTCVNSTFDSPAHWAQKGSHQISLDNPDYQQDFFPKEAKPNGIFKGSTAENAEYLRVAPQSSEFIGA

[3] = target: T2, Tyrosine-protein kinase BTK (Homo sapiens, UniProt Q06187); experiment: Inhibition of human recombinant full length N-terminal His6-tagged BTK expressed in baculovirus infected Sf9 cells using fluorescein labeled Blk/Lyntide substrate preincubated with enzyme for 60 mins followed by further incubation with substrate and ATP for 120 mins by IMAP assay
T2 sequence (Q06187 whole entry, the tested form may be a part): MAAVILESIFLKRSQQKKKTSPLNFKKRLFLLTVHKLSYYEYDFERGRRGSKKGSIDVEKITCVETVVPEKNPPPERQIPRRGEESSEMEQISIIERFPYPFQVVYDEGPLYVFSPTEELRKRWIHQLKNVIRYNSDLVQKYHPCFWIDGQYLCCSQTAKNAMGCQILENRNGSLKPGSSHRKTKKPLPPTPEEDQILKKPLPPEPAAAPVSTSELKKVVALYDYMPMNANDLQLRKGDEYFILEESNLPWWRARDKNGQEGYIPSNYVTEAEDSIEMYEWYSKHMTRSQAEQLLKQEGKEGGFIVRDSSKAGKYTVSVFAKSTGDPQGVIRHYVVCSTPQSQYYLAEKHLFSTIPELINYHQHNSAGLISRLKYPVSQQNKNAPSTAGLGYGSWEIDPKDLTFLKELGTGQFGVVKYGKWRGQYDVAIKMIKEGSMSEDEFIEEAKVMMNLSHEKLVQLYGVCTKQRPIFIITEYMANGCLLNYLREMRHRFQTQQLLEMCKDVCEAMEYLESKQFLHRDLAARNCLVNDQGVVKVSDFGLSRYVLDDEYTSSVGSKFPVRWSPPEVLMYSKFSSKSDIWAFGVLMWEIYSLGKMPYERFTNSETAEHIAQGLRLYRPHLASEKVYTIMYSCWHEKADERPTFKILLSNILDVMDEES

[4] = target: T1, Epidermal growth factor receptor; experiment: Inhibition of recombinant human GST-tagged EGFR (668 to 1210 residues) expressed in baculovirus expression system using Tyr 04 peptide as substrate preincubated for 1 hr by Z'-LYTE assay
Blood = experiment: Inhibition of mouse anti-human anti-IgD-stimulated CD69 cell surface expression in human whole blood preincubated for 2 hrs followed by anti-human anti-IgD stimulation for 18 hrs by flow cytometric analysis; assay type: functional, tissue-based
[5] = target: T2, Tyrosine-protein kinase BTK; experiment: Inhibition of His-tagged recombinant human His-tagged full length BTK expressed in baculovirus expression system using Tyr01 peptide as substrate preincubated for 1 hr by Z'lyte assay
[6] = target: T3, Tyrosine-protein kinase Tec (Homo sapiens, UniProt P42680); experiment: Inhibition of His-tagged recombinant human TEC expressed in baculovirus expression system preincubated for 1 hr by Z'lyte assay
T3 sequence (P42680 whole entry): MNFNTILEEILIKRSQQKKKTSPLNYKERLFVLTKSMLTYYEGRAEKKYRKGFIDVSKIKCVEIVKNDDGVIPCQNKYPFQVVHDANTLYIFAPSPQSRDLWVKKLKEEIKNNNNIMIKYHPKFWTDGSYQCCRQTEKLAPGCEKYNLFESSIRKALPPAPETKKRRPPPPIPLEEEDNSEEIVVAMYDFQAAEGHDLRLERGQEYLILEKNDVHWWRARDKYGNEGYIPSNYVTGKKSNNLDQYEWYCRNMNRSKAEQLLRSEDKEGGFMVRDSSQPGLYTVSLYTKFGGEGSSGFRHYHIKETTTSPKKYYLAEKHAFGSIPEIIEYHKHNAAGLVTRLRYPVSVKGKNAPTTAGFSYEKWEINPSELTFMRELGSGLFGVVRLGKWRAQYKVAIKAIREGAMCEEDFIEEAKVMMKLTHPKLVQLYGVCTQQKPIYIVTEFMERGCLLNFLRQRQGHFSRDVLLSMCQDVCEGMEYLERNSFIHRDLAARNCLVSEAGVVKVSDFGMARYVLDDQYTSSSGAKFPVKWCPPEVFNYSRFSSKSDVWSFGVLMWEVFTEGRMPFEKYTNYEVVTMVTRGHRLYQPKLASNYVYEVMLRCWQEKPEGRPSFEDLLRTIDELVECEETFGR

[7] = target: T4, Tyrosine-protein kinase ITK/TSK (Homo sapiens, UniProt Q08881); experiment: Inhibition of recombinant full length human GST-tagged ITK expressed in baculovirus expression system using tyrosine-1 peptide as substrate preincubated for 1 hr in presence of ATP by Z'-LYTE assay
T4 sequence (Q08881 whole entry): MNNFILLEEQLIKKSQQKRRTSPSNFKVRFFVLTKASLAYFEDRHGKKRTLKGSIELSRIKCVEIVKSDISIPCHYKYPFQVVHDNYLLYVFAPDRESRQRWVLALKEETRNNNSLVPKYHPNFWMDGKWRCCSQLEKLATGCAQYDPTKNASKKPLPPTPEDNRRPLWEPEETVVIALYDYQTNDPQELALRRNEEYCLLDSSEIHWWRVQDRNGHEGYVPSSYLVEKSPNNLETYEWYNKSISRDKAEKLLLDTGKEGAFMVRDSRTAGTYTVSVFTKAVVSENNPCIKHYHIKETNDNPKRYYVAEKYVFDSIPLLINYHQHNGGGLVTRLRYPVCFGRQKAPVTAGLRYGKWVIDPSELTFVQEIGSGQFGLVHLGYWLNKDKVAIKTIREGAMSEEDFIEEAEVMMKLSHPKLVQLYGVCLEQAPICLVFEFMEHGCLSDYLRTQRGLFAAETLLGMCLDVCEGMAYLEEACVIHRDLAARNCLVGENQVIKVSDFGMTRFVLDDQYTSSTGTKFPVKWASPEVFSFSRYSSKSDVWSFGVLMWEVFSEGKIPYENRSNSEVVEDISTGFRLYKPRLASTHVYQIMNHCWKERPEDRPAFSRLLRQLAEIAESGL

[8] = target: Receptor tyrosine-protein kinase erbB-4 (Homo sapiens, UniProt Q15303); experiment: Inhibition of recombinant human N-terminal GST-tagged ERBB4 catalytic domain (708 to 993 residues) expressed in baculovirus expression system using tyrosine-1 peptide as substrate preincubated for 1 hr in presence of ATP by Z'-LYTE assay
Sequence of Receptor tyrosine-protein kinase erbB-4 (Q15303 whole entry, the tested form may be a part): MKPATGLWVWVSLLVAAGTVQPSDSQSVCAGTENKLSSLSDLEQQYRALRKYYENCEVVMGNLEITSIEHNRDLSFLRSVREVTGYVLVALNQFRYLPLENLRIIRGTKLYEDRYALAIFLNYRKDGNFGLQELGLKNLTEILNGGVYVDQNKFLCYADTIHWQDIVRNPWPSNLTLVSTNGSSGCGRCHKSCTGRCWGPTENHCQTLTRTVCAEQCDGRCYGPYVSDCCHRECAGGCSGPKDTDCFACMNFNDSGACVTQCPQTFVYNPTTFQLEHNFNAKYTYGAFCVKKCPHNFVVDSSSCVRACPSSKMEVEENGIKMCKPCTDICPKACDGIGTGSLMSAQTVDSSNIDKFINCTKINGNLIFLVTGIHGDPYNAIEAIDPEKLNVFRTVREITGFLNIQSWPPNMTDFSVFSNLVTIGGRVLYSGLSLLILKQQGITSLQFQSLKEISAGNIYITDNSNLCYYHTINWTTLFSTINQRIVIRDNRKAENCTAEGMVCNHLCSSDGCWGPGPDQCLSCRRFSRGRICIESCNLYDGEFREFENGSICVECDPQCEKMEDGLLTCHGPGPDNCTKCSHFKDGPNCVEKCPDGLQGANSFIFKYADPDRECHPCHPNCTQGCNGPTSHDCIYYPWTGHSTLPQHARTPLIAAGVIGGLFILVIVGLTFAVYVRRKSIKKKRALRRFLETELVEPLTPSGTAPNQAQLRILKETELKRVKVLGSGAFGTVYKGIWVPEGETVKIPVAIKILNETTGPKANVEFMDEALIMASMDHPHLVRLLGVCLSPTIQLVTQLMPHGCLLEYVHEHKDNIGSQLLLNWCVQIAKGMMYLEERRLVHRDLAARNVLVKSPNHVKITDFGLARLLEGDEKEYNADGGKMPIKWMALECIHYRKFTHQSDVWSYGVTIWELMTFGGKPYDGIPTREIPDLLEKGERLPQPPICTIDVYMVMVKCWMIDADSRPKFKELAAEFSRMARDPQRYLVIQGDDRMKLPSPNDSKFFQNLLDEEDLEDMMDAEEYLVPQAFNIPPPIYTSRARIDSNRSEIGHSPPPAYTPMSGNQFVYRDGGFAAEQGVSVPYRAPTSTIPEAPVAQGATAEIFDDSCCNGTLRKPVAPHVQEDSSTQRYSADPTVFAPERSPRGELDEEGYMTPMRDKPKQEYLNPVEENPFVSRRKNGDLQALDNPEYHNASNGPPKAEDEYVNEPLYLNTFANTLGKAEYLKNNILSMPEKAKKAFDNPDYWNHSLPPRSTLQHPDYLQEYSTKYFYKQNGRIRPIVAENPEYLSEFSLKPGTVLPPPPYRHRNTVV

EC50 [1] [µM]	IC50 [2] [µM]	IC50 [3] [µM]	IC50 [4] [µM]	EC50 (Blood) [µM]	IC50 [5] [µM]	IC50 [6] [µM]	IC50 [7] [µM]	IC50 [8] [µM]	Compound
0.0041	0.033	0.0016	0.138	0.013	0.0015	0.184	0.916	0.901	COc1cc2nccc(Oc3ccc(C(=O)Nc4ccccn4)cc3)c2cc1NC(=O)C#CCCN1CCOCC1
0.015	> 1	0.00054	> 1	0.074	0.0083	0.219	> 1	0.037	CC#CC(=O)Nc1cc2c(Oc3ccc(C(=O)Nc4ccccn4)cc3)ccnc2cc1OCCN1CCOCC1
0.022	0.2	0.0012	0.958	0.167	0.004	0.038	> 1	0.016	C=CC(=O)Nc1ccc2nccc(Oc3ccc(C(=O)Nc4cc(CC)ccn4)cc3)c2c1
